Drawing on patent publication US6803374B2, “Compounds useful for treating hepatitis C virus” (priority 2001, dated 2004), this text covers IC50 for 34 compounds.

This test addresses T1, HCV NS5B RdRp genotype 1b (Hepatitis C virus genotype 1b, UniProt Q9WMX2).
T1 construct: The protein was expressed with an 18 amino acid C-terminal truncation to enhance the solubility; made in house; host or cells: E. coli BL21(DE3)
Description: HCV NS5B RdRp enzyme assay. Format: biochemical. To be noted: IC50, HCV RdRp genotype 1b enzyme, C-terminal 18 aa truncated; average of single point IC50 values. How it is done:
HCV NS5B RdRp cloning, expression and purification. The cDNA encoding the NS5B protein of HCV, genotype 1b, was cloned into the pET21a expression vector. The protein was expressed with an 18 amino acid C-terminal truncation to enhance the solubility. The E. coli competent cell line BL21(DE3) was used for expression of the protein. Cultures were grown at 37° C. for ˜4 hours until the cultures reached an optical density of 2.0 at 600 nm. The cultures were cooled to 20° C. and induced with 1 mM IPTG. Fresh ampicillin was added to a final concentration of 50 ug/ml and the cells were grown overnight at 20° C.
Cell pellets (3L) were lysed for purification to yield 15-24 mgs of purified NS5B. The lysis buffer consisted of 20 mM Tris-HCl, pH 7.4, 500 mM NaCl, 0.5% triton X-100, 1 mM DTT, 1 mM EDTA, 20% glycerol, 0.5 mg/ml lysozyme, 10 mM MgCl2, 15 ug/ml deoxyribonuclease I, and Complete TM protease inhibitor tablets (Roche). After addition of the lysis buffer, frozen cell pellets were resuspended using a tissue homogenizer. To reduce the viscosity of the sample, aliquots of the lysate were sonicated on ice using a microtip attached to a Branson sonicator. The sonicated lysate was centrifuged at 100,000×g for 1 hr at 4° C. and filtered through a 0.2 μm filter unit (Corning).
The protein was purified using three sequential chromatography steps: Heparin sepharose CL-6B, polyU sepharose 4B, and Hitrap SP sepharose (Pharmacia). The chromatography buffers were identical to the lysis buffer but contained no lysozyme, deoxyribonuclease I, MgCl2 or protease inhibitor and the NaCl concentration of the buffer was adjusted according to the requirements for charging the protein onto the column. Each column was eluted with a NaCl gradient which varied in length from 5-50 column volumes depending on the column type. After the final chromatography step, the resulting purity of the enzyme is >90% based on SDS-PAGE analysis. The enzyme was aliquoted and stored at −80° C.
HCV NS5B RdRp enzyme assay. HCV RdRp genotype 1b assays were run in assay buffer composed of 20 mM Tris-HCl, pH 7.5, 2.5 mM KCl, 5 mM MgCl2, 1 mM DTT, 1.6 U RNAse inhibitor (Promega N2515), in 96 well plates (Falcon 3918). All compounds were serially diluted in DMSO and diluted further in assay buffer such that the final concentration of DMSO in the assay was 2%. Compounds were serially diluted (3-fold each time) for a 7 point inhibition analysis. HCV RdRp genotype 1b enzyme was used at a final concentration of 28 nM. A polyA template was used at 28 nM, and the oligo-dT12-18 primer was used at 840 nM final concentration. Preannealed primer and template were obtained commercially (Amersham 27-787802). ^3H-UTP was used at 0.125 μCi (1 μM total UTP). Reaction was initiated by the addition of enzyme. Reactions were incubated at 30° C. for 45 min, and stopped by adding 30 ul of 20% ice cold TCA. Plates were chilled for 30 minutes and harvested onto Unifilter-96, GF/B plates (Packard, 6005177) using a Packard FilterMate Cell Harvester. The harvest plates were prewashed 3 times, 200 ul/well, with 100 mM NaPPi. Harvested filters were washed 30 times, 200 ul/well, with distilled water followed by ethanol. Filter plates were dried, and 30 ul/well microscint-20 was added. Plates were read on a Packard Top Count NXT.
The IC50 values for compounds were determined using […] different [I], combined with 7 nM enzyme, 800 ng of the template-primer polyC/oligoG12 (1:5 molar ratio), and 0.7 uM of ^3H GTP containing 1 uCi. The observed fractional activity (fa=vi/vo) was used in the equation IC50=[I]/(1/fa-1) to determine a single point IC50 value. Typically, the single point IC50 values derived from [I] that produced fractional activities in the range of 0.1 to 0.8 relative to the uninhibited control were averaged to calculate the IC50 value for each compound.

T1 sequence (Q9WMX2 2420-2992): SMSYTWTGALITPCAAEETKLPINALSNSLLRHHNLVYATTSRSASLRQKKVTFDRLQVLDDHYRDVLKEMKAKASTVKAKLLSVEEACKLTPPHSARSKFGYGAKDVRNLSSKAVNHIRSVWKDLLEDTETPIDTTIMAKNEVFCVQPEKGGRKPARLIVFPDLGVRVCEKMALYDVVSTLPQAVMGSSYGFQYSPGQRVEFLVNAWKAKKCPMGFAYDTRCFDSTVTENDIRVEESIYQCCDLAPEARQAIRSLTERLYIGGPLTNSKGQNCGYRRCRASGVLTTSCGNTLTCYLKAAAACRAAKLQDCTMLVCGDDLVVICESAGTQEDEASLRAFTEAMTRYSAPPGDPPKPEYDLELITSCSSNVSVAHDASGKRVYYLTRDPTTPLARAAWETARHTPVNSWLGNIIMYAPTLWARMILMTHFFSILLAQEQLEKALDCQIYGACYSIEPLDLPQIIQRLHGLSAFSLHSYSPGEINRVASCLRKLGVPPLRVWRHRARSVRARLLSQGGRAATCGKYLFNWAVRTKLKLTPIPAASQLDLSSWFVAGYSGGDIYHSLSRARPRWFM

By IC50 is commonly meant the midpoint of a concentration-inhibition curve. Read a high IC50 as weaker potency in that assay. In turn, `c1ccc(C(Oc2ccc(-c3nc4cc(-c5nnn[nH]5)ccc4n3C3CCCCC3)cc2)c2ccccc2)cc1` [Example 1, 2-[4-(Diphenylmethoxy)phenyl]-1-cyclohexyl-5-(1H-tetrazol-5-yl)-1H-benzimidazole] displayed an IC50 of 630 nM.
To `COc1ccc(-c2ccc(Cl)cc2)c(COc2ccc(-c3nc4cc(-c5nnn[nH]5)ccc4n3C3CCCCC3)cc2)c1` [Example 3, 2-{4-[(4′-Chloro-4-methoxy-1,1′-biphenyl-2-yl)methoxy]phenyl}-1-cyclohexyl-5-(1H-tetrazol-5-yl)-1H-benzimidazole] belongs 140 nM.
For `O=C(O)c1ccc(-c2cncnc2)c(COc2ccc(-c3nc4cc(-c5nnn[nH]5)ccc4n3C3CCCCC3)cc2)c1` [Example 4, 3-[[4-[1-Cyclohexyl-5-(1H-tetrazol-5-yl)-1H-benzimidazol-2-yl]phenoxy]methyl]-4-(5-pyrimidinyl)benzoic acid] the value was 630 nM; for `COc1ccccc1-c1nc(COc2ccc(-c3nc4cc(-c5nnn[nH]5)ccc4n3C3CCCCC3)cc2)no1` [Example 5, 1-Cyclohexyl-2-[4-[5-(2-methoxyphenyl)-1,2,4-oxadiazol-3-ylmethoxy]phenyl]-5-[1H-tetrazol-5-yl]-1H-benzimidazole], 360 nM.
To `O=c1[nH]c(-c2ccc3c(c2)nc(-c2ccc(OCc4ccccc4)cc2)n3C2CCCCC2)no1` [Example 10, 3-{2-[4-(Benzyloxy)phenyl]-1-cyclohexyl-1H-benzimidazol-5-yl}-1,2,4-oxadiazol-5(4H)-one] belongs 850 nM; to `COC(=O)c1ccc(C(=O)NS(=O)(=O)c2ccc3c(c2)nc(-c2ccc(OCc4ccccc4)cc2)n3C2CCCCC2)cc1` [Example 17, 4-[2-(4-Benzyloxyphenyl)-1-cyclohexyl-1H-benzoimidazole-5-sulfonylaminocarbonyl]-benzoic acid methyl ester], 5210 nM.
With `O=C(O)c1ccc(C(=O)NS(=O)(=O)c2ccc3c(c2)nc(-c2ccc(OCc4ccccc4)cc2)n3C2CCCCC2)cc1` [Example 18, 4-[2-(4-Benzyloxyphenyl)-1-cyclohexyl-1H-benzimidazole-5-sulfonylaminocarbonyl]-benzoic acid], the IC50 amounted to 1520 nM.
To `O=C(O)CC(=O)NS(=O)(=O)c1ccc2c(c1)nc(-c1ccc(OCc3ccccc3)cc1)n2C1CCCCC1` [Example 20, 3-[2-(4-Benzyloxy-phenyl)-1-cyclohexyl-1H-benzoimidazole-5-sulfonylamino]-3-oxo-propionic acid] belongs 8200 nM; to `O=C(O)C(=O)NS(=O)(=O)c1ccc2c(c1)nc(-c1ccc(OCc3ccccc3)cc1)n2C1CCCCC1` [Example 22, [2-(4-Benzyloxy-phenyl)-1-cyclohexyl-1H-benzoimidazole-5-sulfonylamino]-3-oxo-acetic acid], 8090 nM; to `O=C(O)c1ccc(-c2ccc(Cl)cc2)c(COc2ccc(-c3nc4cc(-c5nnn[nH]5)ccc4n3C3CCCCC3)cc2)c1` [Example 23], 20 nM.
`O=C(O)c1ccc(-c2ccc(F)cc2)c(COc2ccc(-c3nc4cc(-c5nnn[nH]5)ccc4n3C3CCCCC3)cc2)c1` [Example 24] yielded an IC50 of 50 nM.
For `COc1ccc(-c2ccc(C(=O)O)cc2COc2ccc(-c3nc4cc(-c5nnn[nH]5)ccc4n3C3CCCCC3)cc2)cc1` [Example 25] the value was 40 nM; for `CSc1ccc(-c2ccc(C(=O)O)cc2COc2ccc(-c3nc4cc(-c5nnn[nH]5)ccc4n3C3CCCCC3)cc2)cc1` [Example 26], 190 nM; for `O=C(O)c1ccc(-c2cc(Cl)cc(Cl)c2)c(COc2ccc(-c3nc4cc(-c5nnn[nH]5)ccc4n3C3CCCCC3)cc2)c1` [Example 27], 1010 nM.
On to `O=C(O)c1ccc(-c2cccc3ccccc23)c(COc2ccc(-c3nc4cc(-c5nnn[nH]5)ccc4n3C3CCCCC3)cc2)c1` [Example 28], for which the IC50 was 620 nM.
To `O=C(O)c1ccc(-c2ccccc2-c2ccccc2)c(COc2ccc(-c3nc4cc(-c5nnn[nH]5)ccc4n3C3CCCCC3)cc2)c1` [Example 29] belongs 250 nM; to `O=C(O)c1ccc(-c2ccc(F)c(Cl)c2)c(COc2ccc(-c3nc4cc(-c5nnn[nH]5)ccc4n3C3CCCCC3)cc2)c1` [Example 30], 40 nM; to `O=C(O)c1ccc(-c2ccc(C(F)(F)F)cc2)c(COc2ccc(-c3nc4cc(-c5nnn[nH]5)ccc4n3C3CCCCC3)cc2)c1` [Example 31], 60 nM.
To `CC(=O)Nc1cccc(-c2ccc(C(=O)O)cc2COc2ccc(-c3nc4cc(-c5nnn[nH]5)ccc4n3C3CCCCC3)cc2)c1` [Example 32] belongs 40 nM; to `O=C(O)c1ccc(-c2cccc(O)c2)c(COc2ccc(-c3nc4cc(-c5nnn[nH]5)ccc4n3C3CCCCC3)cc2)c1` [Example 33], 40 nM.
To `N#Cc1ccc(-c2ccc(C(=O)O)cc2COc2ccc(-c3nc4cc(-c5nnn[nH]5)ccc4n3C3CCCCC3)cc2)cc1` [Example 34] belongs 40 nM; to `O=C(O)c1ccc(-c2ccccc2)c(COc2ccc(-c3nc4cc(-c5nnn[nH]5)ccc4n3C3CCCCC3)cc2)c1` [Example 35], 70 nM.
The compound `O=Cc1ccccc1-c1ccc(C(=O)O)cc1COc1ccc(-c2nc3cc(-c4nnn[nH]4)ccc3n2C2CCCCC2)cc1` [Example 36] gave an IC50 of 830 nM.
To `O=Cc1ccc(-c2ccc(C(=O)O)cc2COc2ccc(-c3nc4cc(-c5nnn[nH]5)ccc4n3C3CCCCC3)cc2)cc1` [Example 37] belongs 70 nM; to `O=C(O)c1ccc(-c2ccc([N+](=O)[O-])cc2)c(COc2ccc(-c3nc4cc(-c5nnn[nH]5)ccc4n3C3CCCCC3)cc2)c1` [Example 41], 50 nM; to `O=C(O)c1ccc(-c2ccc(CO)cc2)c(COc2ccc(-c3nc4cc(-c5nnn[nH]5)ccc4n3C3CCCCC3)cc2)c1` [Example 42], 50 nM.
For `Cc1ccc(-c2ccc(C(=O)O)cc2COc2ccc(-c3nc4cc(-c5nnn[nH]5)ccc4n3C3CCCCC3)cc2)cc1N` [Example 43] the value was 240 nM.
For the compound `COc1ccc(-c2ccc(C(=O)O)cc2COc2ccc(-c3nc4cc(-c5nnn[nH]5)ccc4n3C3CCCCC3)cc2)cc1OC` [Example 44], the IC50 is 80 nM.
To `CC(=O)c1ccc(-c2ccc(C(=O)O)cc2COc2ccc(-c3nc4cc(-c5nnn[nH]5)ccc4n3C3CCCCC3)cc2)cc1` [Example 45] belongs 80 nM; to `O=C(O)c1ccc(-c2ccc(O)cc2)c(COc2ccc(-c3nc4cc(-c5nnn[nH]5)ccc4n3C3CCCCC3)cc2)c1` [Example 46], 60 nM.
To `O=C(O)C=Cc1ccc(-c2ccc(C(=O)O)cc2COc2ccc(-c3nc4cc(-c5nnn[nH]5)ccc4n3C3CCCCC3)cc2)cc1` [Example 47] belongs 50 nM.
To `O=C(c1ccc(-c2ccc(Cl)cc2)c(COc2ccc(-c3nc4cc(-c5nnn[nH]5)ccc4n3C3CCCCC3)cc2)c1)N1CCC(O)CC1` [Example 48] belongs 320 nM; to `CNC(=O)c1ccc(-c2ccc(C#N)cc2)c(COc2ccc(-c3nc4cc(-c5nnn[nH]5)ccc4n3C3CCCCC3)cc2)c1` [Example 49], 80 nM.
As for `CNC(=O)c1ccc(-c2ccc(Cl)cc2)c(COc2ccc(-c3nc4cc(-c5nnn[nH]5)ccc4n3C3CCCCC3)cc2)c1` [Example 50], the IC50 is 230 nM.
